In series [1] the test system is Radical scavenging activity. Nature of the series: Antioxidant activity assessed as DPPH radical scavenging activity at 10 ug/ml by UV-visible spectrophotometry. In kind it is functional.
The subject of a further series is Staphylococcus aureus. Nature of the series: Antibacterial activity against Staphylococcus aureus NCIM 2079 at 100 ug/ml after 24 hrs by agar disc diffusion method. In kind it is functional. The note with it: for zone of inhibition at 100 µg/mL: NCIM 2079, 24 h, read-out: IZ.
A further series deals with Bacillus subtilis. Nature of the series: Antibacterial activity against Bacillus subtilis NCIM 2063 at 100 ug/ml after 24 hrs by agar disc diffusion method. In kind it is functional. The note with it: NCIM 2063, 24 h, read-out: IZ.
The next series has as its system Pseudomonas aeruginosa. Nature of the series: Antibacterial activity against Pseudomonas aeruginosa NCIM 5029 at 100 ug/ml after 24 hrs by agar disc diffusion method. Type of series: functional. The settings on record: for zone of inhibition at 100 µg/mL: NCIM 5029, 24 h, read-out: IZ.
Another series deals with Escherichia coli. Nature of the series: Antibacterial activity against Escherichia coli NCIM 2065 at 100 ug/ml after 24 hrs by agar disc diffusion method. Type of series: functional. The settings on record: for zone of inhibition at 100 µg/mL: NCIM 2065, 24 h, read-out: IZ.
Series [2] in a line: Anti-lipid peroxidation activity ferric chloride-induced lipid peroxidation using egg yolk homogenate at 40 ug/ml by TBARS assay. In kind it is physicochemical. The settings on record: tissue homogenate.

Active and inactive are the calls of the source. The rule behind the calls is not given here.

For the molecule `COc1ccc(/C=N/Nc2cc(N/N=C/c3ccc(OC)c(OC)c3)[nH]n2)cc1OC`, in series [1], the Activity came to 47.1%. Besides, the zone of inhibition at 100 µg/mL in the series with Staphylococcus aureus amounted to 10 mm; in the series with Bacillus subtilis it was 8 mm; with Pseudomonas aeruginosa it was 6 mm; in the series with Escherichia coli, 13 mm.

Regarding `Clc1ccc(-c2nnc(Cc3nnc(-c4ccc(Cl)cc4)o3)o2)cc1`, the Activity was determined as 40% in series [1] and 16.2% in series [2]. In addition, the zone of inhibition at 100 µg/mL amounted to 4 mm in the series on Staphylococcus aureus and 6 mm with Bacillus subtilis. For the same molecule, the “inhibition zone (IZ)” value with Pseudomonas aeruginosa and in the series with Escherichia coli was “inactive” in each case.

`COc1ccc(-c2nnc(Cc3nnc(-c4ccc(OC)c(OC)c4)o3)o2)cc1OC`: the result in series [1] was inactive. For the same molecule, the zone of inhibition at 100 µg/mL in the series with Staphylococcus aureus turned out to be 10 mm; in the series on Bacillus subtilis, 11 mm; in the series on Pseudomonas aeruginosa, 9 mm; in the series with Escherichia coli, 10 mm.

In the case of `COc1cc(/C=N/Nc2cc(N/N=C/c3cc(OC)c(OC)c(OC)c3)[nH]n2)cc(OC)c1OC`, in series [1], the Activity worked out at 52.4%. For the same molecule, the zone of inhibition at 100 µg/mL in the series with Staphylococcus aureus stood at 17 mm; in the series with Bacillus subtilis it was 12 mm; in the series on Pseudomonas aeruginosa, 9 mm. Moreover, the “inhibition zone (IZ)” value with Escherichia coli was “inactive”.

VITAMIN E: the Activity in series [2] is reported as 70%.

For `CN(C)c1ccc(/C=N/Nc2cc(N/N=C/c3ccc(N(C)C)cc3)[nH]n2)cc1`, the Activity in series [1] stood at 59.2%. For the same molecule, the zone of inhibition at 100 µg/mL was 20 mm in the series with Staphylococcus aureus, 10 mm with Bacillus subtilis, 8 mm with Pseudomonas aeruginosa and 9 mm with Escherichia coli.

Regarding `COc1cc(/C=N/Nc2cc(N/N=C/c3cc(OC)c(OC)c(OC)c3)on2)cc(OC)c1OC`, the Activity in series [1] came out at 54%; in series [2], 48.4%. The zone of inhibition at 100 µg/mL turned out to be 13 mm with Staphylococcus aureus, 10 mm with Bacillus subtilis, 9 mm in the series with Pseudomonas aeruginosa and 11 mm in the series with Escherichia coli.

On to `COc1ccc(-c2nnc(Cc3nnc(-c4ccc(OC)cc4)o3)o2)cc1`, for which the outcome in series [1] was inactive. Also, the Activity in series [2] worked out at 40.5%. Further, the zone of inhibition at 100 µg/mL in the series with Staphylococcus aureus is 9 mm; in the series with Bacillus subtilis it was 8 mm; in the series on Pseudomonas aeruginosa it was 7 mm; with Escherichia coli, 6 mm.

For `Oc1ccccc1-c1nnc(Cc2nnc(-c3ccccc3O)o2)o1`, the Activity in series [1] worked out at 37%; in series [2] it was 48.6%. For the same molecule, the zone of inhibition at 100 µg/mL in the series on Staphylococcus aureus amounted to 9 mm; with Bacillus subtilis, 13 mm; with Pseudomonas aeruginosa, 5 mm; with Escherichia coli, 8 mm.

Take `CN(C)c1ccc(/C=N/Nc2cc(N/N=C/c3ccc(N(C)C)cc3)on2)cc1`: the Activity in series [1] turned out to be 90.6%; in series [2] it was 54.5%. Moreover, the zone of inhibition at 100 µg/mL is 20 mm in the series on Staphylococcus aureus, 15 mm with Bacillus subtilis, 12 mm in the series on Pseudomonas aeruginosa and 10 mm with Escherichia coli.

On to `O=C(O)c1cn(C2CC2)c2cc(N3CCNCC3)c(F)cc2c1=O` [CIPROFLOXACIN], for which the figures for the zone of inhibition at 100 µg/mL in the series on Staphylococcus aureus, with Bacillus subtilis and with Pseudomonas aeruginosa were 29 mm, 18 mm and 18 mm, respectively.

Consider `Oc1ccc(-c2nnc(Cc3nnc(-c4ccc(O)cc4)o3)o2)cc1`, for which the Activity in series [1] came to 36%; in series [2] it was 53.4%. For the same molecule, the zone of inhibition at 100 µg/mL in the series on Staphylococcus aureus is 7 mm; with Bacillus subtilis it was 2 mm; with Pseudomonas aeruginosa, 1 mm; in the series with Escherichia coli, 1 mm.

`c1ccc(-c2nnc(Cc3nnc(-c4ccccc4)o3)o2)cc1`: the results for the Activity in series [1] and in series [2] were 41.3% and 33.4%, respectively. The zone of inhibition at 100 µg/mL came to 7 mm in the series on Staphylococcus aureus, 10 mm with Bacillus subtilis, 13 mm with Pseudomonas aeruginosa and 5 mm with Escherichia coli.

As to `O=[N+]([O-])c1ccc(/C=N/Nc2cc(N/N=C/c3ccc([N+](=O)[O-])cc3)[nH]n2)cc1`, the Activity in series [1] is 74.2%; in series [2] it was “Not Active”. In addition, the zone of inhibition at 100 µg/mL is 9 mm in the series on Staphylococcus aureus, 7 mm with Bacillus subtilis, 8 mm in the series with Pseudomonas aeruginosa and 11 mm in the series on Escherichia coli.

`Clc1ccc(/C=N/Nc2cc(N/N=C/c3ccc(Cl)cc3)[nH]n2)cc1`: in series [1], the Activity was found to be 40%. The zone of inhibition at 100 µg/mL with Staphylococcus aureus stood at 4 mm; with Bacillus subtilis, 6 mm; in the series with Pseudomonas aeruginosa it was 5 mm; in the series on Escherichia coli, 4 mm.

Regarding `Oc1ccc(/C=N/Nc2cc(N/N=C/c3ccc(O)cc3)[nH]n2)cc1`, the Activity in series [1] came to 83%; in series [2] it was 58.6%. In addition, in the series on Staphylococcus aureus, the “inhibition zone (IZ)” value was “inactive”. The figures for the zone of inhibition at 100 µg/mL in the series on Bacillus subtilis, with Pseudomonas aeruginosa and in the series on Escherichia coli were 7 mm, 18 mm and 13 mm, respectively.

Regarding `COc1cc(-c2nnc(Cc3nnc(-c4cc(OC)c(OC)c(OC)c4)o3)o2)cc(OC)c1OC`, the Activity in series [2] was determined as 44.3%. Further, the zone of inhibition at 100 µg/mL was 7 mm in the series on Staphylococcus aureus and 3 mm in the series on Bacillus subtilis. Besides, the “inhibition zone (IZ)” value in the series with Pseudomonas aeruginosa and with Escherichia coli was “inactive” throughout.

For the molecule `O=C1O[C@H]([C@@H](O)CO)C(O)=C1O`, in series [1], the Activity was found to be 93.2%.

Take `CN(C)c1ccc(-c2nnc(Cc3nnc(-c4ccc(N(C)C)cc4)o3)o2)cc1`: the Activity in series [1] was found to be 28%; in series [2] it was 46.3%. Besides, the zone of inhibition at 100 µg/mL in the series on Staphylococcus aureus was determined as 13 mm; with Bacillus subtilis it was 12 mm; with Pseudomonas aeruginosa, 9 mm; in the series with Escherichia coli, 10 mm.

For the molecule `Clc1ccc(/C=N/Nc2cc(N/N=C/c3ccc(Cl)cc3)on2)cc1`, the Activity in series [1] is 37.4%; in series [2] it was “Not Active”. The zone of inhibition at 100 µg/mL amounted to 14 mm in the series on Staphylococcus aureus, 8 mm with Bacillus subtilis, 6 mm with Pseudomonas aeruginosa and 8 mm in the series on Escherichia coli.

Regarding `COc1ccc(/C=N/Nc2cc(N/N=C/c3ccc(OC)cc3)[nH]n2)cc1`, the Activity was found to be 44.3% in series [1] and 46.3% in series [2]. In addition, the zone of inhibition at 100 µg/mL worked out at 28 mm in the series on Staphylococcus aureus, 20 mm with Bacillus subtilis, 19 mm in the series with Pseudomonas aeruginosa and 18 mm in the series on Escherichia coli.

Take `C(=N\Nc1cc(N/N=C/c2ccccc2)[nH]n1)/c1ccccc1`: the Activity in series [1] was determined as 34.2%; in series [2], 44%. The zone of inhibition at 100 µg/mL stood at 5 mm in the series with Staphylococcus aureus, 9 mm with Bacillus subtilis, 9 mm in the series with Pseudomonas aeruginosa and 4 mm with Escherichia coli.

The values above are taken from ChEMBL document CHEMBL1777684, “Synthesis and evaluation of antioxidant and antibacterial activities of new substituted bis(1,3,4-oxadiazoles), 3,5-bis(substituted) pyrazoles and isoxazoles” (Bioorg Med Chem Lett, 2011).
